Data on 21 compounds can be found in PubChem BioAssay AID434987 (Southern Research Specialized Biocontainment Screening …, 2010).

Each structure is given as a SMILES string. The source made the active and inactive calls. The rule behind the calls is not given here.

For this test, the system named is M. tuberculosis H37Rv growth inhibition with meropenem. Briefly: dose response, H37Rv, with and without meropenem (AID 434987).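 Note: growth over 7 days at 37 °C before Alamar Blue read on day 9.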
Setting [1] is: M. tuberculosis H37Rv growth inhibition, measured here: IC50 without meropenem.
[2] abbreviates: M. tuberculosis H37Rv growth inhibition, measured here: IC90 without meropenem.
Where [3] appears, read: measured here: IC90 with meropenem.

One may read the IC50 as the concentration at which inhibition is half-maximal. The IC90 is the point of the concentration-response curve where the effect stands at 90%. Take `COc1ccccc1/C=N/NC(=S)Nc1cccnc1`: the IC50 was 31.1 µM. This compound gave a half-inhibitory concentration (IC50) under setting [1] of more than 100 µM. Further, the 90% effect concentration (IC90) under setting [2] was more than 100 µM. The compound further returned a concentration for an effect of 90% (IC90) under setting [3] of more than 50 µM.

In the case of `CSc1ncnc2c1ccn2CC(=O)Nc1ccc(C)c(C)c1`, the IC50 is 8.44 µM. In addition, under setting [1], the half-maximal inhibitory concentration (IC50) was more than 100 µM. The compound further showed an IC90 under setting [2] of more than 100 µM. The IC90 under setting [3] is more than 25 µM.

On to `O=C(N/N=C/c1ccc2c(c1)OCO2)c1sc2cc(Cl)ccc2c1Cl`, for which the IC50 was > 100 µM (inactive). This compound also registered an IC50 under setting [1] of more than 100 µM. Under setting [2], this compound came in with an IC90 of more than 100 µM. The concentration for an effect of 90% (IC90) under setting [3] was more than 100 µM.

With `COc1ccc(C2CC(c3c(-c4ccccc4)c4cc(Cl)ccc4[nH]c3=O)=NN2S(C)(=O)=O)cc1` (centres undefined), the IC50 is > 100 µM (inactive). This compound also returned an IC50 under setting [1] of more than 100 µM. This compound had an IC90 under setting [2] of more than 100 µM. Further, the IC90 under setting [3] is more than 100 µM.

For `CSc1ccc(/C=C/C(=O)NC23CC4CC(CC(C4)C2)C3)cc1`, the IC50 was 5.06 µM. The compound further had an IC50 under setting [1] of 27.2 µM. This compound registered an IC90 under setting [2] of more than 100 µM. Moreover, the IC90 under setting [3] turned out to be 16.1 µM.

In the case of `O=C(Nc1ccc(N2CCCCC2)cc1)c1cc([N+](=O)[O-])cc([N+](=O)[O-])c1`, the IC50 was 43.9 µM (inactive). Under setting [1], this compound gave an IC50 of more than 100 µM. Besides, the 90% effect concentration (IC90) under setting [2] is more than 100 µM. The concentration for an effect of 90% (IC90) under setting [3] was more than 100 µM.

For `CCOc1cc(/C=N\NC(=O)c2ccc(NC(=O)C(C)(C)C)cc2)ccc1OC(=O)c1ccc(C)cc1`, the IC50 is > 100 µM (inactive). Besides, the IC50 under setting [1] is more than 100 µM. Under setting [2], the 90% effect concentration (IC90) is more than 100 µM. Under setting [3], this compound had a concentration for an effect of 90% (IC90) of more than 100 µM.

Take `Cc1ccc2c(c1)CCCN2C(=O)c1cc2ccccc2oc1=O`: the IC50 was 22.9 µM. Also, under setting [1], the half-inhibitory concentration (IC50) was more than 100 µM. The same compound yielded an IC90 under setting [2] of more than 100 µM. The compound further registered an IC90 under setting [3] of more than 25 µM.

Take `NCCS`: the IC50 is > 100 µM (inactive). The half-inhibitory concentration (IC50) under setting [1] was more than 100 µM. This compound also registered a 90% effect concentration (IC90) under setting [2] of more than 100 µM. The IC90 under setting [3] was more than 100 µM.

With `COC(=O)c1c(-c2ccc(OC)cc2)oc2ccc(-c3cc(OC)c(OC)c(OC)c3)cc12`, the IC50 is 7.72 µM. Further, under setting [1], the IC50 is more than 100 µM. In addition, the IC90 under setting [2] is more than 100 µM. Under setting [3], the IC90 was more than 100 µM.

On to `COc1cc(OC)cc(-c2nnc(NC(=O)CCS(=O)(=O)c3ccc(C)cc3)o2)c1`, for which the IC50 was 32.2 µM. Under setting [1], the IC50 is more than 100 µM. Besides, under setting [2], the IC90 was more than 100 µM. The compound further registered an IC90 under setting [3] of more than 100 µM.

For the compound `CCOc1cccc(/C=N/Nc2nc(N3CCCC3)nc(N3CCCC3)n2)c1O`, the IC50 was 90.8 µM (inactive). Also, the IC50 under setting [1] was more than 100 µM. Further, under setting [2], the IC90 was more than 100 µM. In addition, the IC90 under setting [3] is more than 100 µM.

Consider `CCc1ccc(NC(=S)Nc2ccc3cn[nH]c3c2)cc1`, for which the IC50 is 23.9 µM. Moreover, the half-inhibitory concentration (IC50) under setting [1] was more than 100 µM. Further, the IC90 under setting [2] is more than 100 µM. The compound further gave a concentration for an effect of 90% (IC90) under setting [3] of more than 100 µM.

Consider `NS(=O)(=O)c1cccnc1Nc1c(Cl)cccc1Cl`, for which the IC50 was > 100 µM (inactive). Moreover, under setting [1], the IC50 was more than 100 µM. In addition, the IC90 under setting [2] was more than 100 µM. The IC90 under setting [3] was more than 100 µM.

In the case of `CC(=O)c1ccc(OCCCC(=O)OCC(=O)N2CCN(c3ccccc3)CC2)cc1`, the IC50 is 78.7 µM (inactive). Under setting [1], this compound yielded a half-maximal inhibitory concentration (IC50) of more than 100 µM. For the same compound, the IC90 under setting [2] was more than 100 µM. The IC90 under setting [3] was more than 100 µM.

In the case of `Cc1cc(=O)n2c(-c3ccccc3C)n[nH]c2n1`, the IC50 was 51 µM (inactive). Under setting [1], this compound registered an IC50 of 62.4 µM. The compound further yielded a concentration for an effect of 90% (IC90) under setting [2] of more than 100 µM. The compound also showed a concentration for an effect of 90% (IC90) under setting [3] of more than 100 µM.

Turning to `CCOc1ccc(S(=O)(=O)N(C(=O)c2ccco2)c2cc3sc(=O)oc3c3ccccc23)cc1`, the IC50 is 44.7 µM (inactive). Also, the IC50 under setting [1] was found to be 41.8 µM. This compound showed a 90% effect concentration (IC90) under setting [2] of 45.1 µM. Under setting [3], this compound showed a 90% effect concentration (IC90) of 46.9 µM.

Consider `CC/C(=N\NC(=O)c1ccc(-c2ccccc2)cc1)C12CC3CC(CC(C3)C1)C2`, for which the IC50 was 40.7 µM (inactive). The IC50 under setting [1] is 41.1 µM. Under setting [2], this compound had an IC90 of 47.9 µM. Also, the 90% effect concentration (IC90) under setting [3] is 43.7 µM.

As to `CNC(=O)Nc1cccc(-c2cc(-c3c(Cl)cccc3Cl)no2)c1`, the IC50 is > 100 µM (inactive). Besides, the IC50 under setting [1] was more than 100 µM. For the same compound, the IC90 under setting [2] is more than 100 µM. The concentration for an effect of 90% (IC90) under setting [3] is more than 100 µM.

As for `C[C@]12CC[C@@H]3c4ccc(OS(=O)(=O)O)cc4CC[C@H]3[C@@H]1CCC2=O`, the IC50 is > 100 µM (inactive). Under setting [1], the IC50 was more than 100 µM. Moreover, the 90% effect concentration (IC90) under setting [2] is more than 100 µM. Also, the 90% effect concentration (IC90) under setting [3] was more than 100 µM.

Consider `CCc1ccc(NC(=O)c2c(Cl)nc(C)c(Cl)c2C)cc1`, for which the concentration for half-maximal inhibition (IC50) was 7.1 µM. The compound also registered an IC50 under setting [1] of more than 100 µM. In addition, the IC90 under setting [2] was more than 100 µM. Also, under setting [3], the 90% effect concentration (IC90) was more than 100 µM.
